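Compound exposure: 48 hours, 5 concentrations, 96-well plates. GI50: concentration for 50% inhibition of growth. TGI marks complete inhibition of growth.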
Columns and labels:
Experiment in all cases: NCI-60 cell line screen, 48 h
ACHN renal = test system: ACHN renal
HS 578T breast = test system: HS 578T breast
K-562 leukemia = test system: K-562 leukemia
MCF7 breast = test system: MCF7 breast
NCI-H460 lung = test system: NCI-H460 lung
NCI-H522 lung = test system: NCI-H522 lung
RXF 393 renal = test system: RXF 393 renal
SF-295 CNS = test system: SF-295 CNS
SN12C renal = test system: SN12C renal
TK-10 renal = test system: TK-10 renal

| Compound | GI50 (ACHN renal) [µM] | TGI (ACHN renal) [µM] | GI50 (HS 578T breast) [µM] | TGI (HS 578T breast) [µM] | GI50 (K-562 leukemia) [µM] | TGI (K-562 leukemia) [µM] | GI50 (MCF7 breast) [µM] | TGI (MCF7 breast) [µM] | GI50 (NCI-H460 lung) [µM] | TGI (NCI-H460 lung) [µM] | GI50 (NCI-H522 lung) [µM] | TGI (NCI-H522 lung) [µM] | GI50 (RXF 393 renal) [µM] | TGI (RXF 393 renal) [µM] | GI50 (SF-295 CNS) [µM] | TGI (SF-295 CNS) [µM] | GI50 (SN12C renal) [µM] | TGI (SN12C renal) [µM] | GI50 (TK-10 renal) [µM] | TGI (TK-10 renal) [µM] |
| --- | --- | --- | --- | --- | --- | --- | --- | --- | --- | --- | --- | --- | --- | --- | --- | --- | --- | --- | --- | --- |
| Cc1ccc(/C=C(/C#N)n2nnc3ncccc32)cc1 | 2.66 | 13.4 | 2.95 | > 100 | 0.545 | > 100 | 2.37 | 18.1 | 2.69 | 7.76 | 0.255 | 0.878 | 1.54 | 6.54 | 3.77 | 16.2 | 2.6 | 9.66 | 2.39 | 9.22 |
| COC1=CC(c2ccc[nH]2)=N/C1=C\c1[nH]c(C)c(C(=O)Oc2ccccc2)c1C | 0.23 | 1.17 | 0.205 | 0.828 | 0.292 | > 100 | 0.272 | 1.49 | 0.077 | 1.4 | 0.227 | 0.979 | 0.267 | 1.78 | 0.329 | 1.95 | 0.387 | 2.41 | 0.336 | 2.55 |
| COC(=O)CC1C2(C)C3=C(C)C(c4ccoc4)CC3OC2C2OC(=O)C3(C)C=CC(=O)C1(C)C23 (centres undefined) |  | 2.52 |  | > 96.3 |  | 4.82 |  | 1.95 |  | 3.26 |  | 3.22 |  | 3 |  | 13 |  | 2.58 |  | 5.94 |
| CCNC(=O)Oc1ccc(/C(=C(\C)c2ccc(Cl)cc2)c2ccc(OCCN(CC)CC)cc2)cc1 | 3.74 | 14.6 | 3.72 | 16.5 | 2.18 | 5.37 | 1.13 | 10.9 | 2.09 | 4.16 | 13.3 | 28.1 | 2.35 | 9.84 | 1.85 | 4.12 | 4.42 | 16.1 | 17 | 31.8 |
| Clc1ccc(-c2nc3c(-c4ccccc4)nc(-c4ccccc4)cn3c2-c2ccc(Cl)cc2)cc1 | > 100 | > 100 | > 100 | > 100 | > 100 | > 100 | > 100 | > 100 | > 100 | > 100 | > 100 | > 100 | > 100 | > 100 | > 100 | > 100 | > 100 | > 100 | > 100 | > 100 |
| COc1ccc(C2=NN(C=O)C(c3ccc(OS(=O)(=O)c4ccc(C)cc4)c(OC)c3)C2)cc1 (centres undefined) | 10.1 | > 100 | 5.66 | 88.3 | 2.45 | > 100 | 3.7 | > 100 | 8.86 | > 100 | 4.22 | 90.4 | 3.81 | 46.8 | 3.58 | 25.2 | 65.9 | > 100 | > 100 | > 100 |
| NC(CP(=O)(O)O)C(=O)O (centres undefined) |  | > 100 |  | > 100 |  | > 100 |  | > 100 |  | > 100 |  | > 100 |  | > 100 |  | > 100 |  | > 100 |  | > 100 |
| CCSc1nc(NC(C)c2ccccc2)c2cnn(CO)c2n1 (centres undefined) | 76 | > 100 | 8.09 | 99.4 | 29.2 | > 100 | 52.8 | > 100 | 32.8 | > 100 | 14.7 | > 100 | 91.5 | > 100 | 35.2 | > 100 | > 100 | > 100 | 47.7 | > 100 |
| NC(=O)c1cc(I)ccc1NC(=O)/C=C/c1ccccc1Cl | 2.44 | > 73.6 | 0.34 | 2.19 | 0.313 | 3.43 | 0.333 | 25.7 | 0.413 | 4.7 | 0.334 | 1.64 | 0.375 | 2.18 | 0.592 | 19 | 1.32 | 36.7 | 2.48 |  |
| CON=C1C[C@]2(C[C@@H]3C[C@@H](C/C=C(\C)C[C@@H](C)/C=C/C=C4\CO[C@@H]5[C@H](O)C(C)=C[C@@H](C(=O)O3)[C@]45O)O2)O[C@H](/C(C)=C/C(C)C)[C@H]1C | 15.2 | 29.3 | 16.6 | 39.6 | 3.69 | 10.8 | 15.9 | 30 | 13.1 | 30.3 | 12 | 26.1 | 16.4 | 30.6 | 9.16 | 22 | 14 | 28.3 | 17.8 | 33.4 |
| O=C1CC(C(=O)O)Cc2c(Br)ccc(O)c21 (centres undefined) |  | > 100 |  | > 100 |  | > 100 |  | > 100 |  | > 100 |  | > 100 |  | > 100 |  | > 100 |  | > 100 |  | > 100 |
